Key:
[1] = tested on: corneally kindled seizures; assay: animal or person; type: in vivo, Sprague-Dawley rats; settings: Rattus norvegicus, po
[2] = tested on: PTZ (Pentylenetetrazol) induced clonic seizure; assay: animal or person; type: in vivo, Rats; SD; settings: for PTZ test (ip) Protection % (Rats): rat, in vivo
[3] = tested on: PTZ (Pentylenetetrazol) induced clonic seizure; set-up: species or system Mouse; ICR; settings: mouse, in vivo
[4] = tested on: hippocampal kindled seizures; assay: animal or person; type: in vivo, Sprague-Dawley rats; settings: Rattus norvegicus, ip, read-out: HK (ip) ED50
[5] = read-out: CK(po) Protection % (Rats)

For `CC(OC(N)=O)C(O)c1ccccc1Cl` (racemic) [Example 3, 1-(2-chlorophenyl)-1-hydroxypropyl-2-carbamate], the responders at 10 mg/kg [1, 5] was 50% and the ED50 ([2]; Rattus norvegicus, ip, read-out: PTZ test (ip) Rats ED50) was 81.9 mg/kg.

With `CCC(OC(N)=O)C(O)c1ccccc1Cl` (racemic) [Example 8, 1-(2-chlorophenyl)-1-hydroxybutyl-2-carbamate] the “PTZ test (ip) Protection % (Mice)” value [3] was “^a20.4 (50%)^”.

In the case of `CCCCC(OC(N)=O)C(O)c1ccccc1Cl` (racemic) [Example 14, 1-(2-chlorophenyl)-1-hydroxyhexyl-2-carbamate], the “PTZ test (ip) Protection % (Mice)” value [3] is reported as “^a20.4 (16.7%)”.

`CNC(=O)OC(C)C(O)c1ccccc1Cl` (racemic) [Example 29, 1-(2-chlorophenyl)-1-hydroxypropyl-2-N-methylcarbamate] was tested, and the “PTZ test (ip) Protection % (Mice)” value [3] was “^a20.4 (33.3%)”.

In the case of `CCCNC(=O)OC(C)C(O)c1ccccc1Cl` (racemic) [Example 30, 1-(2-chlorophenyl)-1-hydroxypropyl-2-N-propylcarbamate], the “PTZ test (ip) Protection % (Mice)” value [3] is reported as “^a20.4 (33.3%)”.

With `CC(C)NC(=O)OC(C)C(O)c1ccccc1Cl` (racemic) [Example 31, 1-(2-chlorophenyl)-1-hydroxypropyl-2-N-isopropylcarbamate] the “PTZ test (ip) Protection % (Mice)” value [3] was “^a20.4 (83.3%)”.

For `CC(OC(=O)NC1CC1)C(O)c1ccccc1Cl` (racemic) [Example 32, 1-(2-chlorophenyl)-1-hydroxypropyl-2-N-cyclopropylcarbamate], the “PTZ test (ip) Protection % (Mice)” value [3] was “^a20.4 (16.7%)”.

`C[C@H](OC(N)=O)[C@@H](O)c1ccccc1Cl` [Example 1, 1-(2-chlorophenyl)-(S)-1-hydroxypropyl-(S)-2-carbamate] gave an ED50 [4] of 17.6 mg/kg and an ED50 ([1]; read-out: CK(po) ED50) of 2.8 mg/kg.

For `C[C@@H](OC(N)=O)[C@H](O)c1ccccc1Cl` [Example 2, 1-(2-chlorophenyl)-(R)-1-hydroxypropyl-(R)-2-carbamate], the responders at 20 mg/kg [1, 5] was 16.7%.

In the case of `C[C@@H](OC(N)=O)[C@@H](O)c1ccccc1Cl` [Example 4, 1-(2-chlorophenyl)-(S)-1-hydroxypropyl-(R)-2-carbamate], the responders at 30 mg/kg [1, 5] is reported as 100%.

`C[C@H](OC(N)=O)[C@H](O)c1ccccc1Cl` [Example 5, 1-(2-chlorophenyl)-(R)-1-hydroxypropyl-(S)-2-carbamate] showed a responders at 30 mg/kg [1, 5] of 50%.

For `CC[C@H](OC(N)=O)[C@@H](O)c1ccccc1Cl` [Example 6, 1-(2-chlorophenyl)-(S)-1-hydroxybutyl-(S)-2-carbamate], the responders at 10 mg/kg [1, 5] was 33.3% and the “PTZ test (ip) Protection % (Rats)” value [2] was “^b30 (50%)^”.

In the case of `CC(C)[C@H](OC(N)=O)[C@@H](O)c1ccccc1Cl` [Example 9, 1-(2-chlorophenyl)-(S)-1-hydroxy-3-methyl-butyl-(S)-2-carbamate], the responders at 30 mg/kg [1, 5] is reported as 16.7% and the “PTZ test (ip) Protection % (Mice)” value [3] is reported as “^a20.4 (33.3%)”.

In the case of `CCCC[C@H](OC(N)=O)[C@@H](O)c1ccccc1Cl` [Example 12, 1-(2-chlorophenyl)-(S)-1-hydroxyhexyl-(S)-2-carbamate], the “PTZ test (ip) Protection % (Mice)” value [3] is reported as “^a20.4 (33.3%)”.

With `CCCC[C@@H](OC(N)=O)[C@H](O)c1ccccc1Cl` [Example 13, 1-(2-chlorophenyl)-(R)-1-hydroxyhexyl-(R)-2-carbamate] the “PTZ test (ip) Protection % (Mice)” value [3] was “^a20.4 (50%)^”.

`CNC(=O)O[C@@H](C)[C@@H](O)c1ccccc1Cl` [Example 15, 1-(2-chlorophenyl)-(S)-1-hydroxypropyl-(S)-2-N-methylcarbamate] was tested, and the “PTZ test (ip) Protection % (Rats)” value [2] was “^b25 (33.3%)”.

With `CCCNC(=O)O[C@@H](C)[C@@H](O)c1ccccc1Cl` [Example 16, 1-(2-chlorophenyl)-(S)-1-hydroxypropyl-(S)-2-N-propylcarbamate] the “PTZ test (ip) Protection % (Rats)” value [2] was “^b30 (33.3%)”.

In the case of `C[C@H](OC(=O)NC1CC1)[C@@H](O)c1ccccc1Cl` [Example 18, 1-(2-chlorophenyl)-(S)-1-hydroxypropyl-(R)-2-N-cyclopropylcarbamate], the “PTZ test (ip) Protection % (Rats)” value [2] is reported as “^b30 (16.7%)”.

For `CCCNC(=O)O[C@H](C)[C@H](O)c1ccccc1Cl` [Example 23, 1-(2-chlorophenyl)-(R)-1-hydroxypropyl-(R)-2-N-propylcarbamate], the “PTZ test (ip) Protection % (Mice)” value [3] was “^a20.4 (50%)^”.

With `C[C@@H](OC(=O)NC1CC1)[C@H](O)c1ccccc1Cl` [Example 25, 1-(2-chlorophenyl)-(R)-1-hydroxypropyl-(R)-2-N-cyclopropylcarbamate] the “PTZ test (ip) Protection % (Mice)” value [3] was “^a20.4 (66.7%)”.

`C[C@H](OC(N)=O)[C@@H](O)c1ccc(Cl)cc1Cl` [Example 36, 1-(2,4-dichlorophenyl)-(S)-1-hydroxypropyl-(S)-2-carbamate] was tested, and the responders at 30 mg/kg [1, 5] was 50% and the “PTZ test (ip) Protection % (Mice)” value [3] was “^a20.4 (33.3%)”.

With `C[C@H](OC(N)=O)[C@@H](O)c1c(Cl)cccc1Cl` [Example 37, 1-(2,6-dichlorophenyl)-(S)-1-hydroxypropyl-(S)-2-carbamate] the responders at 10 mg/kg [1, 5] was 33.3% and the “PTZ test (ip) Protection % (Rats)” value [2] was “^b30 (50%)^”.

`C[C@H](OC(N)=O)[C@@H](O)c1cccc(Cl)c1Cl` [Example 38, 1-(2,3-dichlorophenyl)-(S)-1-hydroxypropyl-(S)-2-carbamate] was tested, and the responders at 30 mg/kg [1, 5] was 50% and the “PTZ test (ip) Protection % (Mice)” value [3] was “^a20.4 (50%)^”.

For `CC[C@H](OC(N)=O)[C@@H](O)c1ccc(Cl)cc1Cl` [Example 39, 1-(2,4-dichlorophenyl)-(S)-1-hydroxybutyl-(S)-2-carbamate], the responders at 25 mg/kg [1, 5] was 100%.

With `CC[C@H](OC(N)=O)[C@@H](O)c1c(Cl)cccc1Cl` [Example 40, 1-(2,6-dichlorophenyl)-(S)-1-hydroxybutyl-(S)-2-carbamate] the “PTZ test (ip) Protection % (Mice)” value [3] was “^a20.4 (33.3%)”.

With `CC(C)[C@H](OC(N)=O)[C@@H](O)c1c(Cl)cccc1Cl` [Example 42, 1-(2,6-dichlorophenyl)-(S)-1-hydroxy-3-methyl-butyl-(S)-2-carbamate] the “PTZ test (ip) Protection % (Mice)” value [3] was “^a20.4 (50%)^”.

`CCCC[C@H](OC(N)=O)[C@@H](O)c1ccc(Cl)cc1Cl` [Example 43, 1-(2,4-dichlorophenyl)-(S)-1-hydroxyhexyl-(S)-2-carbamate] was tested, and the “PTZ test (ip) Protection % (Rats)” value [2] was “^b25 (33.3%)”.

For `CCCC[C@H](OC(N)=O)[C@@H](O)c1c(Cl)cccc1Cl` [Example 44, 1-(2,6-dichlorophenyl)-(S)-1-hydroxyhexyl-(S)-2-carbamate], the “PTZ test (ip) Protection % (Mice)” value [3] was “^a20.4 (33.3%)”.

With `C[C@@H](OC(N)=O)[C@H](O)c1ccc(Cl)cc1Cl` [Example 45, 1-(2,4-dichlorophenyl)-(R)-1-hydroxypropyl-(R)-2-carbamate] the “PTZ test (ip) Protection % (Mice)” value [3] was “^a20.4 (16.7%)” and the “PTZ test (ip) Protection % (Rats)” value [2] was “^b50 (16.7%)”.

With `C[C@@H](OC(N)=O)[C@H](O)c1c(Cl)cccc1Cl` [Example 46, 1-(2,6-dichlorophenyl)-(R)-1-hydroxypropyl-(R)-2-carbamate] the responders at 20 mg/kg [1, 5] was 50% and the “PTZ test (ip) Protection % (Mice)” value [3] was “^a20.4 (50%)^”.

With `C[C@H](OC(N)=O)[C@@H](O)c1ccccc1F` [Example 63, 1-(2-fluorophenyl)-(S)-1-hydroxypropyl-(S)-2-carbamate] the responders at 20 mg/kg [1, 5] was 100% and the “PTZ test (ip) Protection % (Mice)” value [3] was “^a20.4 (50%)^”.

In the case of `C[C@H](OC(N)=O)[C@@H](O)c1ccccc1I` [Example 65, 1-(2-iodophenyl)-(S)-1-hydroxypropyl-(S)-2-carbamate], the responders at 2.8 mg/kg [1, 5] is reported as 33.3% and the “PTZ test (ip) Protection % (Mice)” value [3] is reported as “^a20.4 (100%)”.

For `CC[C@H](OC(N)=O)[C@@H](O)c1ccccc1I` [Example 67, 1-(2-iodophenyl)-(S)-1-hydroxybutyl-(S)-2-carbamate], the responders at 30 mg/kg [1, 5] was 100% and the “PTZ test (ip) Protection % (Rats)” value [2] was “^b30 (33.3%)”.

Source: patent US9907776B2 (priority 2013, dated 2018)
